Entries after “also recorded” stand apart in the source; their conditions may differ.
Experiments:
[1] = tested on: polymicrobial communities cultured from the postoperative mouse colon; assay: Plasmin activity assay of polymicrobial communities from postoperative mouse colon; type: biochemical; settings: 10 mM TXA, exogenous PLG and uPA
Protocol: Polymicrobial communities collected from homogenized tissue and luminal contents were cultured aerobically in nonspecific media and underwent plasmin activity assays in the presence of human PLG and uPA. […] (*p<0.05, ANCOVA). Error bars indicate means±SD. All data are representative of three separate experiments, each run in triplicate.
Plasminogen/uPA activity. Plasmin activity assays were performed as previously described with minor modifications, and fluorescence data was analyzed per the manufacturer's instructions (50′). Incubation times were optimized for bacteria at low optical density to limit internal filter effects in fluorescence-based assays. Bacteria (when included) were grown overnight in TY media. […] A final concentration of 6 M fluorogenic substrate specific for plasmin (H-D-Val-Leu-Lys-AFC, AnaSpec) was added immediately prior to a kinetic fluorescent read with excitation wavelength 380 nm and emission wavelength 500 nm. Reads were conducted every 15 to 30 seconds over the course of 30 minutes. […] When assays were performed in human plasma, fluorescence was read for 120 minutes total.
Plasmin activity assays were measured in polymicrobial communities cultured aerobically from homogenized luminal contents or tissue following anastomotic surgery without antibiotics and without introduction of a leak-inducing pathogen (e.g., E. faecalis, P. aeruginosa, S. marcescens). […]

[2] = tested on: type IV collagen degradation by collagenolytic E. faecalis E44; assay: Collagen degradation by E. faecalis E44 with PLG, uPA and MMP9; type: biochemical, Enterococcus faecalis; settings: fluorescently tagged type IV collagen
Protocol: Collagen degradation. Assays were performed per the manufacturer's instructions as previously described with slight modifications (51′). Bacteria were grown overnight in TY. Optical density was normalized to 0.1 through dilution. […] Total reaction volume was 200 L. The incubation proceeded at 37° C. for 5 hours to allow for bacterial attachment to collagen and PLG binding. uPA was added and the incubation proceeded for an additional hour. Change in fluorescence over time at 480/520 nm was determined kinetically over the initial 30 minutes of the reaction.
The role of activated plasminogen (PLG) in anastomotic leak. […] Co-incubation of E44 with murine macrophages ([…]) was performed for studies involving conditioned media. Twenty-week-old male C57BL/6 mice underwent the validated model of E44-induced AL that includes preoperative antibiotics to defaunate the colon, surgical transection and anastomosis of the colon and introduction of E44 in 10% glycerol to the surgical site via rectal enema on postoperative day 1. […] Anastomotic healing was assessed blindly using a validated anastomotic healing score (AHS): 0=uncomplicated healing, 1=flimsy adhesions, 2=dense adhesions, 3=abscess, and 4=gross anastomotic disruption. AL was defined as AHS 3 or above.

NC[C@H]1CC[C@H](C(=O)O)CC1 [TXA, tranexamic acid]
plasmin-activating activity of polymicrobial communities [1]: significantly inhibited
collagen degradation by E44 with PLG, uPA and MMP9 [2]: inhibited by TXA in a concentration-dependent fashion; also recorded: collagen degradation was inhibited
collagen degradation by E44 with PLG, uPA and MMP9 ([2]; listed as tranexamic acid): inhibited in a concentration-dependent manner

Source: patent publication US12383579B2, “Materials and methods of using an inhibitor of plasminogen activation to treat anastomotic leak” (THE UNIVERSITY OF CHICAGO, priority 2018, dated 2025)
